{"source": "patent US8192962B2", "about": "“Processes for detecting toxic substances” (Daikin Industries, Ltd., priority 2001, dated 2012)", "test_system": "DNA repair protein genes", "assay": "DNA chip mRNA expression in yeast, DNA repair protein genes (Table 3)", "assay_type": "cell-based, Saccharomyces cerevisiae S288C", "details": "incubated two hours, concentrations as in the 1st table", "how_it_was_run": "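Ratios compare mRNA levels in stressed and control S. cerevisiae. Each toxicant was applied for two hours to log-phase cultures at 25° C. at a sub-lethal, growth-inhibiting level; fluorescent cDNA (Cy3- or Cy5-dUTP) was hybridized to a genome-wide yeast chip for over 12 h at 65° C.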", "data": [{"smiles": "Cl[C@H]1[C@H](Cl)[C@@H](Cl)[C@@H](Cl)[C@H](Cl)[C@H]1Cl", "note": "[(7), γ-hexachlorocyclohexane]", "values": [{"measurement": "The level of expressed mRNA in the presence of chemical substance/The level of expressed mRNA in the absence of chemical substance", "setting": "yeast gene YAL015C", "result": 1.2}, {"measurement": "The level of expressed mRNA in the presence of chemical substance/The level of expressed mRNA in the absence of chemical substance", "setting": "yeast gene YAR007C", "result": 0.8}, {"measurement": "The level of expressed mRNA in the presence of chemical substance/The level of expressed mRNA in the absence of chemical substance", "setting": "yeast gene YBL019W", "result": 1.2}, {"measurement": "The level of expressed mRNA in the presence of chemical substance/The level of expressed mRNA in the absence of chemical substance", "setting": "yeast gene YBR073W", "result": 0.6}, {"measurement": "The level of expressed mRNA in the presence of chemical substance/The level of expressed mRNA in the absence of chemical substance", "setting": "yeast gene YBR272C", "result": 1.9}, {"measurement": "The level of expressed mRNA in the presence of chemical substance/The level of expressed mRNA in the absence of chemical substance", "setting": "yeast gene YCR014C", "result": 1.1}, {"measurement": "The level of expressed mRNA in the presence of chemical substance/The level of expressed mRNA in the absence of chemical substance", "setting": "yeast gene YDL017W", "result": 1.1}, {"measurement": "The level of expressed mRNA in the presence of chemical substance/The level of expressed mRNA in the absence of chemical substance", "setting": "yeast gene YDL059C", "result": 1.1}, {"measurement": "The level of expressed mRNA in the presence of chemical substance/The level of expressed mRNA in the absence of chemical substance", "setting": "yeast gene YDL200C", "result": 1.7}, {"measurement": "The level of expressed mRNA in the presence of chemical substance/The level of expressed mRNA in the absence of chemical substance", "setting": "yeast gene YDR054C", "result": 1.1}, {"measurement": "The level of expressed mRNA in the presence of chemical substance/The level of expressed mRNA in the absence of chemical substance", "setting": "yeast gene YDR369C", "result": 0.4}, {"measurement": "The level of expressed mRNA in the presence of chemical substance/The level of expressed mRNA in the absence of chemical substance", "setting": "yeast gene YEL019C", "result": 1.2}, {"measurement": "The level of expressed mRNA in the presence of chemical substance/The level of expressed mRNA in the absence of chemical substance", "setting": "yeast gene YEL037C", "result": 0.8}, {"measurement": "The level of expressed mRNA in the presence of chemical substance/The level of expressed mRNA in the absence of chemical substance", "setting": "yeast gene YER162C", "result": 0.5}, {"measurement": "The level of expressed mRNA in the presence of chemical substance/The level of expressed mRNA in the absence of chemical substance", "setting": "yeast gene YFL014W", "result": 5.5}, {"measurement": "The level of expressed mRNA in the presence of chemical substance/The level of expressed mRNA in the absence of chemical substance", "setting": "yeast gene YGL058W", "result": 0.0}, {"measurement": "The level of expressed mRNA in the presence of chemical substance/The level of expressed mRNA in the absence of chemical substance", "setting": "yeast gene YGL091C", "result": 1.3}, {"measurement": "The level of expressed mRNA in the presence of chemical substance/The level of expressed mRNA in the absence of chemical substance", "setting": "yeast gene YGL127C", "result": 1.0}, {"measurement": "The level of expressed mRNA in the presence of chemical substance/The level of expressed mRNA in the absence of chemical substance", "setting": "yeast gene YGL163C", "result": 1.0}, {"measurement": "The level of expressed mRNA in the presence of chemical substance/The level of expressed mRNA in the absence of chemical substance", "setting": "yeast gene YGL249W", "result": 1.2}, {"measurement": "The level of expressed mRNA in the presence of chemical substance/The level of expressed mRNA in the absence of chemical substance", "setting": "yeast gene YGR180C", "result": 0.5}, {"measurement": "The level of expressed mRNA in the presence of chemical substance/The level of expressed mRNA in the absence of chemical substance", "setting": "yeast gene YGR231C", "result": 2.1}, {"measurement": "The level of expressed mRNA in the presence of chemical substance/The level of expressed mRNA in the absence of chemical substance", "setting": "yeast gene YGR258C", "result": 1.5}, {"measurement": "The level of expressed mRNA in the presence of chemical substance/The level of expressed mRNA in the absence of chemical substance", "setting": "yeast gene YHR164C", "result": 0.8}, {"measurement": "The level of expressed mRNA in the presence of chemical substance/The level of expressed mRNA in the absence of chemical substance", "setting": "yeast gene YIL036W", "result": 1.4}, {"measurement": "The level of expressed mRNA in the presence of chemical substance/The level of expressed mRNA in the absence of chemical substance", "setting": "yeast gene YIL072W", "result": 1.7}, {"measurement": "The level of expressed mRNA in the presence of chemical substance/The level of expressed mRNA in the absence of chemical substance", "setting": "yeast gene YIL143C", "result": 0.8}, {"measurement": "The level of expressed mRNA in the presence of chemical substance/The level of expressed mRNA in the absence of chemical substance", "setting": "yeast gene YIL153W", "result": 1.6}, {"measurement": "The level of expressed mRNA in the presence of chemical substance/The level of expressed mRNA in the absence of chemical substance", "setting": "yeast gene YIR002C", "result": 1.3}, {"measurement": "The level of expressed mRNA in the presence of chemical substance/The level of expressed mRNA in the absence of chemical substance", "setting": "yeast gene YJL026W", "result": 0.5}, {"measurement": "The level of expressed mRNA in the presence of chemical substance/The level of expressed mRNA in the absence of chemical substance", "setting": "yeast gene YJR046W", "result": 0.9}, {"measurement": "The level of expressed mRNA in the presence of chemical substance/The level of expressed mRNA in the absence of chemical substance", "setting": "yeast gene YJR052W", "result": 1.2}, {"measurement": "The level of expressed mRNA in the presence of chemical substance/The level of expressed mRNA in the absence of chemical substance", "setting": "yeast gene YKL145W", "result": 1.6}, {"measurement": "The level of expressed mRNA in the presence of chemical substance/The level of expressed mRNA in the absence of chemical substance", "setting": "yeast gene YLR103C", "result": 1.3}, {"measurement": "The level of expressed mRNA in the presence of chemical substance/The level of expressed mRNA in the absence of chemical substance", "setting": "yeast gene YLR233C", "result": 0.8}, {"measurement": "The level of expressed mRNA in the presence of chemical substance/The level of expressed mRNA in the absence of chemical substance", "setting": "yeast gene YLR288C", "result": 1.3}, {"measurement": "The level of expressed mRNA in the presence of chemical substance/The level of expressed mRNA in the absence of chemical substance", "setting": "yeast gene YML032C", "result": 0.8}, {"measurement": "The level of expressed mRNA in the presence of chemical substance/The level of expressed mRNA in the absence of chemical substance", "setting": "yeast gene YML058W", "result": 0.6}, {"measurement": "The level of expressed mRNA in the presence of chemical substance/The level of expressed mRNA in the absence of chemical substance", "setting": "yeast gene YMR035W", "result": 2.3}, {"measurement": "The level of expressed mRNA in the presence of chemical substance/The level of expressed mRNA in the absence of chemical substance", "setting": "yeast gene YMR072W", "result": 1.4}, {"measurement": "The level of expressed mRNA in the presence of chemical substance/The level of expressed mRNA in the absence of chemical substance", "setting": "yeast gene YMR096W", "result": 1.9}, {"measurement": "The level of expressed mRNA in the presence of chemical substance/The level of expressed mRNA in the absence of chemical substance", "setting": "yeast gene YMR284W", "result": 0.8}, {"measurement": "The level of expressed mRNA in the presence of chemical substance/The level of expressed mRNA in the absence of chemical substance", "setting": "yeast gene YNL213C", "result": 1.4}, {"measurement": "The level of expressed mRNA in the presence of chemical substance/The level of expressed mRNA in the absence of chemical substance", "setting": "yeast gene YNL250W", "result": 1.2}, {"measurement": "The level of expressed mRNA in the presence of chemical substance/The level of expressed mRNA in the absence of chemical substance", "setting": "yeast gene YNL261W", "result": 1.0}, {"measurement": "The level of expressed mRNA in the presence of chemical substance/The level of expressed mRNA in the absence of chemical substance", "setting": "yeast gene YNL312W", "result": 0.5}, {"measurement": "The level of expressed mRNA in the presence of chemical substance/The level of expressed mRNA in the absence of chemical substance", "setting": "yeast gene YOL043C", "result": 1.0}, {"measurement": "The level of expressed mRNA in the presence of chemical substance/The level of expressed mRNA in the absence of chemical substance", "setting": "yeast gene YOR005C", "result": 1.4}, {"measurement": "The level of expressed mRNA in the presence of chemical substance/The level of expressed mRNA in the absence of chemical substance", "setting": "yeast gene YOR386W", "result": 1.8}, {"measurement": "The level of expressed mRNA in the presence of chemical substance/The level of expressed mRNA in the absence of chemical substance", "setting": "yeast gene YPL022W", "result": 0.8}, {"measurement": "The level of expressed mRNA in the presence of chemical substance/The level of expressed mRNA in the absence of chemical substance", "setting": "yeast gene YPL164C", "result": 0.9}, {"measurement": "The level of expressed mRNA in the presence of chemical substance/The level of expressed mRNA in the absence of chemical substance", "setting": "yeast gene YPL194W", "result": 1.5}, {"measurement": "The level of expressed mRNA in the presence of chemical substance/The level of expressed mRNA in the absence of chemical substance", "setting": "yeast gene YPR025C", "result": 1.4}]}]}
